The text below walks through data of patent EP0100734A1, “Process for the separation or purification of a sleep promoting factor from a biological source by immunological reaction of the antigen-antibody kind” (ANVAR Agence Nationale de Valorisation de la Recherche, priority 1982, dated 1984).

The structures appear in SMILES notation.

The test has as its system anticorps monoclonaux anti-MDP. As to the kind of experiment: Competitive ELISA: inhibition of binding of MDP-lysine-peroxidase conjugate to captured monoclonal anti-MDP antibody. On the set-up: species or system souris. The method, then:
On a recours à la technique antérieurement. décrite dans l'article de BAHR et Coll. déjà mentionné, sous réserve de quelques modifications de détail. Les éléments essentiels de la méthodologie utilisée sont rappelés ci-après.
Les puits de plaques micro-ELISA (commercialisées par la société DYNATECH) sont tapissés avec des fractions Ig d'anticorps de chèvre anti-souris IgM, IgA ou IgG, par maintien en contact avec leurs parois d'une solution contenant 5 ug/ml de la fraction Ig pendant 3 heures à 4°C. Après lavage de la plaque avec une solution de PBS contenant 0,05 % de l'agent de dispersion commercialisé sous la dénomination TWEEN 20, on ajoute des dilutions des surnageants d'hybridomes producteurs d'anticorps anti-MDP aux différents puits et on incube pendant 2 heures à la température ambiante. Les fractions Ig facilitent la retenue des anticorps anti-MDP. Les plaques sont ensuite lavées et une solution de MDP-lysine couplé à de la péroxydase de raifort diluée au 1/1000 est ajoutée aux puits. Les plaques sont ensuite laissées au repos pendant la nuit à 4°C. Après lavage, on détermine les proportions de MDP-lysine-péroxydase fixées dans les puits, en mettant en oeuvre l'ortho-phénylène-diamine et de l'eau oxygénée en tant que substrat de la péroxydase. […]

Take `CC(=O)N[C@H]1C(O)O[C@H](CO)[C@@H](O)[C@@H]1O[C@H](C)C(=O)N[C@@H](C)C(=O)N[C@H](CCC(=O)O)C(N)=O` (stereo partly drawn) [MDP, M-acétyl-muramyl-L-alanyl-D-isoglutamine]: the “inhibitions exprimées par des activités” value (100 µl of MDP solution containing 100 ng, added together with MDP-peroxidase conjugate (1/1000), antibody diluted 1/100 = 100 % activity) is on record as 31%.
As to `CC(=O)N[C@H]1C(O)O[C@H](CO)[C@@H](O)[C@@H]1O[C@H](C)C(=O)N[C@H](C)C(=O)N[C@H](CCC(=O)O)C(N)=O` (stereo partly drawn) [MDP-DD, N-acétyl- muramyl- D-alanyl-D-isoglutamine], the inhibition entry (added under the same conditions together with the conjugate, amount not stated) is reported as “aucune inhibition”.
